Test results from US20200261440A1, “ZINC IONOPHORES AND USES THEREOF” (THE UNIVERSITY OF QUEENSLAND, priority 2017, published 2020).
Read-outs that look alike come from different tables or passages of the source. Marks after values point to notes of the source that are not given here.

How the values were obtained:
[1] = tested on: GAS strain HKU16 (Streptococcus pyogenes strain HKU16); test: microbe, parasite or virus in culture; assay type: cell-based
Experimental: (§1) J. Path. Bact. […] Proc. Soc.
(§2) MIC assays were carried out in biological triplicates.
(§3) M100 Performance Standards for Antimicrobial Susceptibility Testing, 27th Edition.

[2] = tested on: Vancomycin-resistant Enterococci (VRE) clinical isolate RBWH1; test: MIC by broth microdilution (CLSI); assay type: cell-based, Enterococcus; details: for antibiotic sensitivity of resistant strain: addition of sub-inhibitory PBT2+zinc(II) ions
Experimental: as §1, §2, §3

[3] = tested on: Klebsiella pneumoniae strain MS6771; test: MIC by broth microdilution (CLSI); assay type: cell-based
[4] = tested on: VRE; test: Murine wound infection model; assay type: in vivo, BALB/c mice; details: 4 days
Description: For wound infection, 4-7 week old female BALB/c mice were used and housed in individual cages [Pandey, M. et al. A synthetic M protein peptide synergizes with a CXC chemokine protease to induce vaccine-mediated protection against virulent streptococcal pyoderma and bacteremia. J Immunol 194, 5915-5925, doi:10.4049/jimmunol.1500157 (2015)]. The neck area of the mice was shaved and residual hair removed using Nair (Church & Dwight) prior to the experiment. On the day of infection, mice were anesthetized by inhalation of methoxyflurane and a small superficial scarification was made on the shaved skin using a metal file. For infection, 5×10^6-2×10^7 CFU GAS or 5×10^5-2×10^6 CFU MRSA/VRE were applied onto the scarified skin. […] Mice were treated with ointment twice daily and a total of 9 treatments were applied. […] […] After four days treatment, the mice were euthanized, the scarified skin was excised, and washed twice in PBS by vortexing for 30 seconds. […] Each treatment group contained six mice and statistical significance was calculated using an unpaired t-test (non-parametric).

[5] = tested on: Methicillin-resistant Staphylococcus aureus (MRSA) strain USA300; test: MIC by broth microdilution (CLSI)
Experimental: GAS HKU16, MRSA USA300, VRE RBWH1, Klebsiella pneumoniae strain MS6771, E. coli strain MS8345 and Streptococcus pneumoniae strain 23F were grown in Todd-Hewitt broth (THB) or agar with 1% yeast extract (THY) [Todd, E. W. & Hewitt, L. F. A new culture medium for the production of antigenic streptococcal haemolysin. […] Bacteria were routinely grown at 37° C. in ambient air.
MICs were determined by broth microdilution in accordance to CLSI guidelines (“Methods for Dilution Antimicrobial Susceptibility Tests for Bacteria That Grow Aerobically”, Clinical and Laboratory Standards Institute) [Clinical and Laboratory Standards Institute. […] For MRSA, VRE, Klebsiella pneumoniae and E. coli the assays were performed in MHB, and for GAS and Streptococcus pneumoniae MHB+2.5% lysed horse blood (LHB) was used. The bacterial inoculum was prepared by direct colony suspension aiming for 2-8×10^5 colony forming units (CFU)/mL bacteria per well. Antibiotics/compounds were serially diluted two-fold across the 96-well plate, the last column contained no antibiotics/compounds. The inoculum was added to the plate containing antibiotic/compound and incubated for 16-24 h at 35+/−2° C. […] MIC assays were carried out in biological triplicates.
Using Clinical and Laboratory Standards Institute guidelines for antimicrobial sensitivity testing [Clinical and Laboratory Standards Institute.

[6] = tested on: MCR-1 E. coli strain MS8345; test: MIC by broth microdilution (CLSI); assay type: cell-based, Escherichia coli; details: for antibiotic sensitivity of resistant strain: MCR1-positive E. coli MS8345; for MIC: MCR-1 E. coli
Experimental: as §1
J Infect Dis. 1995 171:890-6). E. coli strain MS8345 is a MCR-1 resistant clinical isolate supplied by Prof. D. L. Paterson, University of Queensland Centre for Clinical Research.
(§4) (2017)]. […] MIC assays were carried out in biological triplicates.

[7] = tested on: A. baumannii strain 42-A; test: MIC by broth microdilution (CLSI); assay type: cell-based, Acinetobacter baumannii; details: Untreated
Experimental: (§5) They were obtained from Jan Bell, Australian Centre of Microbial Resistance Ecology (ACARE), University of Adelaide, Australia.
as §4

[8] = tested on: P. aeruginosa strain 253-43-C; test: MIC by broth microdilution (CLSI); assay type: cell-based, Pseudomonas aeruginosa
Experimental: as §5, §4

[9] = tested on: GAS; test: Drop test assay, growth on THY agar; assay type: cell-based, Streptococcus pyogenes; details: PBT2 (1.5 μM), zinc(II) ions (400 μM)
Experimental: (§6) FIG. 1a illustrates growth of GAS, MRSA and VRE on THY agar in the presence or absence of PBT2 (1.5 μM) and zinc(II) ions (400 μM).
(§7) Bacteria were diluted from overnight cultures to get a starting OD600 of 0.01 in THY. Once the bacteria grew to an OD600 of 0.6, the culture were serially diluted in PBS and 5 μL of each dilution (undiluted, 10^−1, 10^−2, 10^−3, 10^−4, 10^−5) was plated on THY agar plates with or without zinc (400 μM) and/or PBT2 ([…]). Plates were incubated at 37° C. overnight. Drop tests were undertaken in biological triplicates.

[10] = tested on: MRSA; test: Drop test assay, growth on THY agar; assay type: cell-based, Staphylococcus aureus; details: PBT2 (1.5 μM), zinc(II) ions (400 μM)
Experimental: as §6, §7

[11] = tested on: VRE; test: Drop test assay, growth on THY agar; assay type: cell-based, Enterococcus; details: PBT2 (1.5 μM), zinc(II) ions (400 μM)
Experimental: as §6, §7

[12] = humans; up to 250 mg/day (oral) for 12 weeks; cited from earlier work
[13] = K. pneumoniae, RA-HQ-12: 16 μM, Zn: 64 μM
[14] = MRSA, RA-HQ-12: 3.5 μM, Zn: […], oxacillin with 2% NaCl
[15] = MRSA, RA-HQ-12: 3.5 μM, oxacillin with 2% NaCl

Compound: CN[C@H](CC(C)C)C(=O)N[C@H]1C(=O)N[C@@H](CC(N)=O)C(=O)N[C@H]2C(=O)N[C@H]3C(=O)N[C@H](C(=O)N[C@H](C(=O)O)c4cc(O)cc(O)c4-c4cc3ccc4O)[C@H](O)c3ccc(c(Cl)c3)Oc3cc2cc(c3O[C@@H]2O[C@H](CO)[C@@H](O)[C@H](O)[C@H]2O[C@H]2C[C@](C)(N)[C@H](O)[C@H](C)O2)Oc2ccc(cc2Cl)[C@H]1O [Vancomycin, vancomycin]
- MIC ([1]; Streptococcus pyogenes, GAS, RA-HQ-12: 3.5 μM): 0.5 µg/mL
- MIC ([1]; Streptococcus pyogenes, GAS, RA-HQ-12: 3.5 μM, Zn: […]): 0.25 µg/mL
- MIC ([1]; Streptococcus pyogenes, GAS, Zn: […] (RA-HQ-12 panel)): 0.5 µg/mL
- MIC ([1]; Streptococcus pyogenes, GAS, RA-HQ-12: 0 μM, Zn: 0 μM): 0.5 µg/mL
- MIC ([2]; Enterococcus, VRE, VRE RBWH1, CQ: 0 μM, Zinc: 0 μM): > 128 µg/mL
- MIC ([2]; Enterococcus, VRE, VRE RBWH1, CQ: 2.5 μM): > 128 µg/mL
- MIC ([2]; Enterococcus, VRE, VRE RBWH1, CQ: 2.5 μM, Zinc: 32 μM): 1 µg/mL
- MIC ([2]; Enterococcus, VRE, VRE RBWH1, PBT2: 0 μM, Zinc: 0 μM): > 128 µg/mL
- MIC ([2]; Enterococcus, VRE, VRE RBWH1, PBT2: 1.75 μM): > 128 µg/mL
- MIC ([2]; Enterococcus, VRE, VRE RBWH1, PBT2: 1.75 μM, Zinc: […]): 1 to 2 µg/mL
- MIC ([2]; Enterococcus, VRE, VRE RBWH1, Zinc: 32 μM): > 128 µg/mL
- MIC ([2]; Enterococcus, VRE, VRE RBWH1, Zinc: […] (PBT2 panel)): > 128 µg/mL
- MIC ([2]; Enterococcus, VRE, RA-HQ-12: 0 μM, Zn: 0 μM): > 128 µg/mL
- MIC ([2]; Enterococcus, VRE, RA-HQ-12: 3.5 μM): > 128 µg/mL
- MIC ([2]; Enterococcus, VRE, RA-HQ-12: 3.5 μM, Zn: […]): > 128 µg/mL
- MIC ([2]; Enterococcus, VRE, Zn: […] (RA-HQ-12 panel)): > 128 µg/mL
- antibiotic sensitivity of resistant strain ([2]; VRE RBWH1): became sensitive
- MIC ([3]; K. pneumoniae, RA-HQ-12: 16 μM): >128 µg/mL
- MIC [3, 13]: >128 µg/mL
- MIC ([3]; K. pneumoniae, Zn: 64 μM): >128 µg/mL
- MIC ([3]; Klebsiella pneumoniae, MS6771): > 128 µg/mL
- bacterial burden at the site of infection (CFUs) ([4]; 1.5% vancomycin in combination with 2 mM PBT2 + 25 mM ZnSO4, ointment twice daily): significantly reducing infection
- bacterial burden at the site of infection (CFUs) ([4]; treatment alone: 2 mM PBT2 + 25 mM ZnSO4, or 1.5% vancomycin, ointment twice daily): Neither antibiotic nor sub-inhibitory concentrations of PBT2+zinc(II) ions alone reduced bacterial burden
- MIC [5, 14]: 1 µg/mL
- MIC [5, 15]: 1 µg/mL
- MIC ([5]; Staphylococcus aureus): 1 µg/mL

Compound: colistin
- antibiotic resensitization ([1]; GAS HKU16, RA-HQ-12+zinc(II) ions (ZnSO4)): resensitize
- antibiotic sensitivity of resistant strain ([1]; GAS HKU16, addition of sub-inhibitory PBT2+zinc(II) ions): became sensitive
- MIC ([1]; GAS, RA-HQ-12: 3.5 μM, Zn: […]): 2-4^# μg/mL
- MIC ([1]; Streptococcus pyogenes HKU16, CQ: 6 μM): 64 µg/mL
- MIC ([1]; Streptococcus pyogenes HKU16, CQ: 6 μM, Zinc: 80 μM): 1 µg/mL
- MIC ([1]; Streptococcus pyogenes HKU16, PBT2: 4.75 μM): 32 µg/mL
- MIC ([1]; Streptococcus pyogenes HKU16, PBT2: 4.75 μM, Zinc: […]): 0.5-1^ μg/mL
- MIC ([2]; VRE RBWH1, CQ: 2.5 μM, Zinc: 32 μM): 0.5 to 1 µg/mL
- MIC ([2]; VRE RBWH1, PBT2: 1.75 μM, Zinc: […]): 0.5 µg/mL
- antibiotic resensitization ([2]; VRE RBWH1, RA-HQ-12+zinc(II) ions (ZnSO4)): resensitize
- antibiotic sensitivity of resistant strain ([2]; VRE RBWH1): became sensitive
- MIC ([2]; VRE, RA-HQ-12: 3.5 μM): 32 µg/mL
- MIC ([2]; VRE, RA-HQ-12: 3.5 μM, Zn: […]): 2-4^# μg/mL
- MIC ([3]; K. pneumoniae, RA-HQ-12: 0 μM, Zn: 0 μM): 64 µg/mL
- MIC ([3]; K. pneumoniae, RA-HQ-12: 16 μM): 32 µg/mL
- MIC [3, 13]: 4^# μg/mL
- MIC ([3]; K. pneumoniae, Zn: 64 μM): 64 µg/mL
- antibiotic resensitization ([3]; Klebsiella pneumoniae MS6771, RA-HQ-12+zinc(II) ions (ZnSO4)): resensitize
- antibiotic sensitivity of resistant strain ([3]; Klebsiella pneumoniae MS6771, addition of sub-inhibitory PBT2+zinc(II) ions): became sensitive
- antibiotic sensitivity of resistant strain ([3]; Klebsiella pneumoniae MS6771, combination with PBT2, no zinc): resulted in sensitivity
- MIC ([3]; Klebsiella pneumoniae, CQ: 0 μM, Zinc: 0 μM): 64 µg/mL
- MIC ([3]; Klebsiella pneumoniae, CQ: 64 μM): 0.5 µg/mL
- MIC ([3]; Klebsiella pneumoniae, CQ: 64 μM, Zinc: 256 μM): 0.5 µg/mL
- MIC ([3]; Klebsiella pneumoniae, PBT2: 0 μM, Zinc: 0 μM): 32 to 64 µg/mL
- MIC ([3]; Klebsiella pneumoniae, Zinc: 256 μM (CQ panel)): 32 to 64 µg/mL
- MIC ([3]; Klebsiella pneumoniae, Zinc: 256 μM (PBT2 panel)): 32 to 64 µg/mL
- antibiotic sensitivity of resistant strain ([6]; addition of sub-inhibitory PBT2+zinc(II) ions): became sensitive
- antibiotic sensitivity of resistant strain ([6]; combination with PBT2, no zinc): resulted in sensitivity
- MIC ([6]; CQ: 0 μM, Zinc: 0 μM): 8 µg/mL
- MIC ([6]; CQ: 5 μM): 2 µg/mL
- MIC ([6]; CQ: 5 μM, Zinc: 25 μM): 0.5 to 1 µg/mL
- MIC ([6]; PBT2: 0 μM, Zinc: 0 μM): 8 µg/mL
- MIC ([6]; PBT2: 7 μM): 1 µg/mL
- MIC ([6]; PBT2: 7 μM, Zinc: 200 μM): 0.25 µg/mL
- MIC ([6]; Zinc: 25 μM): 8 µg/mL
- MIC ([6]; Zinc: 200 μM): 8 µg/mL
- MIC [7]: >64 µg/mL
- MIC ([8]; PBT2): 1 µg/mL
- MIC ([8]; Untreated): 8 µg/mL
- MIC ([5]; MRSA USA300, CQ: 1 μM, Zinc: 32 μM): 2 µg/mL
- MIC ([5]; MRSA USA300, PBT2: 2 μM, Zinc: 50 μM): 2 µg/mL
- antibiotic resensitization ([5]; MRSA USA 300, RA-HQ-12+zinc(II) ions (ZnSO4)): resensitize
- antibiotic sensitivity of resistant strain ([5]; MRSA USA300, addition of sub-inhibitory PBT2+zinc(II) ions): became sensitive
- MIC [5, 14]: 8 µg/mL
- MIC [5, 15]: 64 µg/mL

Compound: CN(C)Cc1ccc2c(Cl)cc(Cl)c(O)c2n1 [PBT2, 5,7-dichloro-2-[(dimethylamino)methyl]-8-quinolinol]
- MIC ([1]; Streptococcus pyogenes, GAS HKU 16, substance alone, read-out: MIC): > 30 µM
- MIC ([2]; Enterococcus, VRE RBWH1, substance alone, read-out: MIC): 1.9 µM
- antibacterial activity [9]: neither PBT2 nor zinc(II) ions (in the form of zinc chloride) displayed antibacterial activity
- antibacterial activity [10]: neither PBT2 nor zinc(II) ions (in the form of zinc chloride) displayed antibacterial activity
- antibacterial activity [11]: neither PBT2 nor zinc(II) ions (in the form of zinc chloride) displayed antibacterial activity
- safety and tolerability [12]: safe and well tolerated
- MIC ([5]; Staphylococcus aureus, MRSA USA300, substance alone): 3.75 µM
